In patent publication US5039689A, “Antiparasitic 3(4-amino benzotriazo-1-yl-)1,2-cyclopentanediols” (Burroughs Wellcome Co., priority 1988, dated 1991):

What was measured:
[1] = test system: Trypanosoma brucei gambiense; assay: Activity against Trypanosoma brucei gambiense (procyclic culture, 5 days, density by Coulter Counter); format: cell-based, T. brucei subsp. gambiense procyclic (strain TH114); conditions: 120 h, T. brucei gambiense procyclic TH114, medium PDM-79, 27° C., read-out: I50
Protocol: A) Activity against Trypanosoma brucei gambiense 1. T. brucei subsp. gambiense procyclic (strain TH114 from the Institut fur Schiffs und Tropenkrankheiten, Hamburg) were grown in medium PDM-79 (Fish et al; BBA714[1982]422-428) in 25 cm^2 tissue (T-25) culture flasks at 27° C. in a 5% CO^2 /air atmosphere. Drugs were dissolved in 0.1N NaOH and their concentration determined from their spectral data. Drugs were added to the PDM-79 at a volume≤1% of the total volume and the drug containing medium filter-sterilised into T-25 flasks. Flasks were inoculated to a final density of ≈10^5 /ml and incubated for 5 days at which time their density was determined by a Coulter Counter (Model ZB1). Results were expressed as % inhibition relative to the controls.

Pneumocystis carinii = assay: Activity against Pneumocystis carinii (method of Pesanti); format: cell-based; conditions: read-out: I50
Protocol: (B) Activity against Pneumocystis carinii
The compounds were tested according to the method of Pesanti, (J. Infect. Dis., 141(6), 775-780, 1980).

[2] = Oral toxicology test in rats; format: in vivo; conditions: Charles River CD rats, 4 mg/kg for 30 days
Protocol: Charles River CD rats were given oral doses of the compound of Example 3 at 4 mg/kg for 30 days.

Compound	IC50 [1]	IC50 (Pneumocystis carinii)	treatment-related changes with respect to clinical signs of toxicity, body weight, clinical pathology or pathology [2]
Nc1ncnc2c1ncn2[C@H]1CC[C@@H](O)[C@H]1O (relative stereo) [Example 2, (±)-(1R*,2S*,3S*)-3-(6-Amino-9H-purin-9-yl)-1,2-cyclopentanediol]	1 µM	< 20 µM	
Nc1ncnc2c1ncn2[C@@H]1C[C@H](CCl)[C@@H](O)[C@H]1O (relative stereo) [Example 4, (±)-(1R*,2S*,3R*,5S*)-3-(6-Amino-9H-purin-9-yl)-5-(chloromethyl)-1,2-cyclopentanediol]	3.5 µM		
C[C@H]1C[C@@H](n2cnc3c(N)ncnc32)[C@H](O)[C@@H]1O (relative stereo) [Example 5, (±)-(1R*,2S*,3R*,5S*)-3-(6-Amino-9H-purin-9-yl)-5-methyl-1,2-cyclopentanediol]	0.002 µM		
Nc1ncnc2c1ncn2[C@@H]1CC[C@@H](O)[C@H]1O (relative stereo) [Example 1C, (±)-(1R*,2S*,3R*)-3-(6-Amino-9H-purin-9-yl)-1,2-cyclopentanediol]	0.0007 µM		
NC(=O)[C@@H]1C[C@H](n2cnc3c(N)ncnc32)[C@@H](O)[C@H]1O (relative stereo) [Example 6, (±)-(1R*,2S*,3R*,4S*)-4-(6-Amino-9H-purin-9-yl)-2,3-dihydroxy-1-cyclopentanecarboxamide]	0.04 to 0.2 µM		
Nc1ncnc2c1nnn2[C@@H]1CC[C@@H](O)[C@H]1O (relative stereo) [Example 3C, (±)-(1R*,2S*,3R*)-3-(7-Amino-3H-1,2,3-triazolo[4,5-d]pyrimidin-3-yl)-1,2-cyclopentanediol]	0.2 µM	< 20 µM	No treatment-related changes were observed
